Laboratory results: publication PMC4331254 (European journal of pharmacology, 2015)
Where two headings read alike, the source gives them in different places.

How the values were obtained:
[1] = tested on: male Sprague-Dawley rats; settings: for substitution for BU224 discriminative stimulus: full ≥ 80%, partial ≥ 60% and < 80% training drug-appropriate responding; for antagonism of the discriminative stimulus effects of BU224: 10-min pretreatment, dose ratio 95% CLs included 1
[2] = tested on: male Sprague-Dawley rats; settings: for substitution for phenyzoline discriminative stimulus: full ≥ 80%, partial ≥ 60% and < 80% training drug-appropriate responding; for antagonism of the discriminative stimulus effects of phenyzoline: 10-min pretreatment, dose ratio 95% CLs included 1
[3] = tested on: rats; settings: rat, in vivo; cited from earlier work
[4] = tested on: rats discriminating 2-BFI; settings: ref MacInnes and Handley, 2002, Jordan et al., 1996; cited from earlier work
[5] = molecular target: I2 receptors; settings: cited from earlier work
[6] = tested on: rats discriminating CR4056; settings: ref Qiu et al., 2014a; cited from earlier work
[7] = molecular target: 5-HT1A (Homo sapiens, UniProt P08908); test: Binding selectivity screening, 5-HT1A
5-HT1A, sequence (P08908 whole entry, species assumed): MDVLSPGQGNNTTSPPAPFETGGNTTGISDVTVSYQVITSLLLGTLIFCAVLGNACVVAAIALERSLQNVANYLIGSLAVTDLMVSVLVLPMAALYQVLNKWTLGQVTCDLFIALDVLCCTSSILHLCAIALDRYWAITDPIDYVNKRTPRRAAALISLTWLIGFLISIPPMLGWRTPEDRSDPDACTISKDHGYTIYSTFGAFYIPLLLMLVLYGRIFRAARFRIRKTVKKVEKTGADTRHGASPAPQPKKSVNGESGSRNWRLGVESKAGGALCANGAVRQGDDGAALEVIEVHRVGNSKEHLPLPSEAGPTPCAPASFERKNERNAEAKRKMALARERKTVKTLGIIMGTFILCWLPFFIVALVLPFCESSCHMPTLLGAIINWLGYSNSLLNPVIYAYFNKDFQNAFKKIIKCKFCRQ

[8] = molecular target: 5-HT1B (Homo sapiens, UniProt P28222); test: Binding selectivity screening, 5-HT1B; settings: read-out: % inhibition (10nM)
[9] = molecular target: 5-HT1D (Homo sapiens, UniProt P28221); test: Binding selectivity screening, 5-HT1D; settings: read-out: % inhibition (10nM)
[10] = molecular target: 5-HT1E (Homo sapiens, UniProt P28566); test: Binding selectivity screening, 5-HT1E; settings: read-out: % inhibition (10nM)
[11] = molecular target: 5-HT2A (Homo sapiens, UniProt P28223); test: Binding selectivity screening, 5-HT2A; settings: read-out: % inhibition (10nM)
[12] = molecular target: 5-HT2C (Homo sapiens, UniProt P28335); test: Binding selectivity screening, 5-HT2C; settings: read-out: % inhibition (10nM)
[13] = molecular target: 5-HT3 (Homo sapiens, UniProt P46098); test: Binding selectivity screening, 5-HT3; settings: read-out: % inhibition (10nM)
[14] = molecular target: 5-HT5A (Homo sapiens, UniProt P47898); test: Binding selectivity screening, 5-HT5A; settings: read-out: % inhibition (10nM)
[15] = molecular target: 5-HT7 (Homo sapiens, UniProt P34969); test: Binding selectivity screening, 5-HT7; settings: read-out: % inhibition (10nM)
[16] = molecular target: alpha 1A (Homo sapiens, UniProt P35348); test: Binding selectivity screening, alpha 1A; settings: read-out: % inhibition (10nM)
[17] = molecular target: alpha 2B (Homo sapiens, UniProt P35368); test: Binding selectivity screening, alpha 2B; settings: read-out: % inhibition (10nM)
[18] = molecular target: alpha 1D (Homo sapiens, UniProt P25100); test: Binding selectivity screening, alpha 1D; settings: read-out: % inhibition (10nM)
alpha 1D, sequence (P25100 whole entry): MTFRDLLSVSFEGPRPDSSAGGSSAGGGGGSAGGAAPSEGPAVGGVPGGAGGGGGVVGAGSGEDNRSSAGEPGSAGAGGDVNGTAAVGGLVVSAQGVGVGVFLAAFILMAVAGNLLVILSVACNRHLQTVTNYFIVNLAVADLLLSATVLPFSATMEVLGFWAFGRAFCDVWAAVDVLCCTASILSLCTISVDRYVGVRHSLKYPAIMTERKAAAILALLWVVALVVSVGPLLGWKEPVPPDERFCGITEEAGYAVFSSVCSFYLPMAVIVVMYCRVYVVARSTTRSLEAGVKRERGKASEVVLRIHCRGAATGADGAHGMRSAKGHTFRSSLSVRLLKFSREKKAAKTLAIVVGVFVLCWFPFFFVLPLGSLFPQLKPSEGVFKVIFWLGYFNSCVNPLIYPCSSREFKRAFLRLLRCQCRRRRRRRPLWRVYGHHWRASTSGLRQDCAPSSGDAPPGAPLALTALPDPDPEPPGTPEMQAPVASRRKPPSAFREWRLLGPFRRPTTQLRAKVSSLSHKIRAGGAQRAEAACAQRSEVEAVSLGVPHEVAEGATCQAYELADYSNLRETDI

[19] = molecular target: alpha 2A (Homo sapiens, UniProt P08913); test: Binding selectivity screening, alpha 2A
alpha 2A, sequence (P08913 whole entry): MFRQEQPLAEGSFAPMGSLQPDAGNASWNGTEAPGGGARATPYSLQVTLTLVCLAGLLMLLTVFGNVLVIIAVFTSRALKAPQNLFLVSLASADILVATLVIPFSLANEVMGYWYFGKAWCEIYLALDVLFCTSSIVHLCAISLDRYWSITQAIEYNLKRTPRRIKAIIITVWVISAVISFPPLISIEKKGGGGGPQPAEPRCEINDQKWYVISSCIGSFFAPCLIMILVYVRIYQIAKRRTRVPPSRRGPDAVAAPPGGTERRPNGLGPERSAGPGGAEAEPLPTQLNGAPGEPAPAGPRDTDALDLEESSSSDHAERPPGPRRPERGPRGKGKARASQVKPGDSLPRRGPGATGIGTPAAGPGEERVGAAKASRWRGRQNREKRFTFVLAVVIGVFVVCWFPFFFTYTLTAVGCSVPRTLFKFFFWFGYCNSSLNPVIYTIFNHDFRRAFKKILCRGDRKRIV

[20] = molecular target: alpha 2B (Homo sapiens, UniProt P18089); test: Binding selectivity screening, alpha 2B; settings: read-out: % inhibition (10nM)
[21] = molecular target: alpha 2C (Homo sapiens, UniProt P18825); test: Binding selectivity screening, alpha 2C; settings: read-out: % inhibition (10nM)
alpha 2C, sequence (P18825 whole entry): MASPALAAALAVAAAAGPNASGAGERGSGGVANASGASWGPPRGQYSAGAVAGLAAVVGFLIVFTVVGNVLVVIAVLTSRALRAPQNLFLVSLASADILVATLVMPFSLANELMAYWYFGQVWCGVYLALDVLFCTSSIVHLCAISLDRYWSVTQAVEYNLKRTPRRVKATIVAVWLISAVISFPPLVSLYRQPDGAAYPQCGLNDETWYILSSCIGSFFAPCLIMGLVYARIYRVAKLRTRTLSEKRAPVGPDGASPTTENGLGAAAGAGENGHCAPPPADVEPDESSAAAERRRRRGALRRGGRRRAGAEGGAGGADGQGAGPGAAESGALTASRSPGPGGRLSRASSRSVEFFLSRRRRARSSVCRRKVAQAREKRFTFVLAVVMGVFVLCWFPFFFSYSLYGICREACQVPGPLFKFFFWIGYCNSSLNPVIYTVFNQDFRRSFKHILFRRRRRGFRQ

[22] = molecular target: β 1 (Homo sapiens, UniProt P08588); test: Binding selectivity screening, β 1; settings: read-out: % inhibition (10nM)
β 1, sequence (P08588 whole entry): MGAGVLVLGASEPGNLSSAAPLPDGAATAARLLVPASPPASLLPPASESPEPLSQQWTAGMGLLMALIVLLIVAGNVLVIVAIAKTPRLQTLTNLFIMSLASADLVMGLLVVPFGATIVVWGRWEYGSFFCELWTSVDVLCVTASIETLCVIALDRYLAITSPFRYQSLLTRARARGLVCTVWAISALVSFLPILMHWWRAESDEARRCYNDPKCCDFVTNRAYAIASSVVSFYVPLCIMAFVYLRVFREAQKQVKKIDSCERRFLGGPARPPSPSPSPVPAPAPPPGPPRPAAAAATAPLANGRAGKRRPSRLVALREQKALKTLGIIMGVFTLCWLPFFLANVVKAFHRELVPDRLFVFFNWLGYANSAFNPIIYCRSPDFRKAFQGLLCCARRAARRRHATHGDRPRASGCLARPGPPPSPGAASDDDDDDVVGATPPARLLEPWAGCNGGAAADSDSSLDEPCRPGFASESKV

[23] = molecular target: β 2 (Homo sapiens, UniProt P07550); test: Binding selectivity screening, β 2; settings: read-out: % inhibition (10nM)
β 2, sequence (P07550 whole entry): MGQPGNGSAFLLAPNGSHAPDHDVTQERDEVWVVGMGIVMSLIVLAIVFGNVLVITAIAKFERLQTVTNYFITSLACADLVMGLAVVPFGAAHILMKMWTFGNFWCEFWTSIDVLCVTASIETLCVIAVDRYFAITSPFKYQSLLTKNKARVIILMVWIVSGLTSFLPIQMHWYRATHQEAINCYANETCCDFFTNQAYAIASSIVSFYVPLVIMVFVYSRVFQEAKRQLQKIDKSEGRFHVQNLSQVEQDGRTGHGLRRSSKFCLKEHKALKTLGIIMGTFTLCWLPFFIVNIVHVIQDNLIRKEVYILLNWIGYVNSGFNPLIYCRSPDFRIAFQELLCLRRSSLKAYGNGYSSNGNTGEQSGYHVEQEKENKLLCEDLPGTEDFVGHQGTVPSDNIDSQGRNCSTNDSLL

[24] = molecular target: β 3 (Homo sapiens, UniProt P13945); test: Binding selectivity screening, β 3; settings: read-out: % inhibition (10nM)
[25] = molecular target: D1 (Homo sapiens, UniProt P21728); test: Binding selectivity screening, D1; settings: read-out: % inhibition (10nM)
[26] = molecular target: D2 (Homo sapiens, UniProt P14416); test: Binding selectivity screening, D2; settings: read-out: % inhibition (10nM)
[27] = molecular target: D3 (Homo sapiens, UniProt P35462); test: Binding selectivity screening, D3; settings: read-out: % inhibition (10nM)
D3, sequence (P35462 whole entry): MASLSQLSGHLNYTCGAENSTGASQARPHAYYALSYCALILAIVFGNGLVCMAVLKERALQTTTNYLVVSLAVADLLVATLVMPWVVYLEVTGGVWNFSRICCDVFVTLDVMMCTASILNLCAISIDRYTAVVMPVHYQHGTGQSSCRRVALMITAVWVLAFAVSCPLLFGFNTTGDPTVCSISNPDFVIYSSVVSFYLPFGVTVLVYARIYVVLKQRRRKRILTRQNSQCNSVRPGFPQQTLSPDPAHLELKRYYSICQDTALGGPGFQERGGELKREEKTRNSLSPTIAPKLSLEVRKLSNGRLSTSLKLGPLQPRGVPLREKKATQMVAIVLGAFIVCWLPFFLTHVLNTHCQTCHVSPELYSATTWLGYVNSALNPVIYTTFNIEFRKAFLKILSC

[28] = molecular target: D4 (Homo sapiens, UniProt P21917); test: Binding selectivity screening, D4; settings: read-out: % inhibition (10nM)
[29] = molecular target: D5 (Homo sapiens, UniProt P21918); test: Binding selectivity screening, D5; settings: read-out: % inhibition (10nM)
D5, sequence (P21918 whole entry): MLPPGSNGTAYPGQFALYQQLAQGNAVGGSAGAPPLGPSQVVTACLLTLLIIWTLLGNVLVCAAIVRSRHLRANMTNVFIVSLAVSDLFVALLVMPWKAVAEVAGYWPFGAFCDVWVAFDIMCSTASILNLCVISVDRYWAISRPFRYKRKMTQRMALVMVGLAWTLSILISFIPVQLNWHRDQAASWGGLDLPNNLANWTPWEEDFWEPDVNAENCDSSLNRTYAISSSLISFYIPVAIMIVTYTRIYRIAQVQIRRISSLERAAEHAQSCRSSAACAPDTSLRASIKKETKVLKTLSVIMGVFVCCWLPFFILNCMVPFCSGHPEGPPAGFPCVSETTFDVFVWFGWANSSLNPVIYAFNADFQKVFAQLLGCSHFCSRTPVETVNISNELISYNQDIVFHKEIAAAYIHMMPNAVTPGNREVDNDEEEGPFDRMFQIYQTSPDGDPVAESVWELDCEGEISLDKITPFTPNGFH

[30] = molecular target: DAT (Homo sapiens, UniProt Q01959); test: Binding selectivity screening, DAT; settings: read-out: % inhibition (10nM)
[31] = molecular target: δ opioid receptor (Homo sapiens, UniProt P41143); test: Binding selectivity screening, δ opioid receptor; settings: read-out: % inhibition (10nM)
δ opioid receptor, sequence (P41143 whole entry): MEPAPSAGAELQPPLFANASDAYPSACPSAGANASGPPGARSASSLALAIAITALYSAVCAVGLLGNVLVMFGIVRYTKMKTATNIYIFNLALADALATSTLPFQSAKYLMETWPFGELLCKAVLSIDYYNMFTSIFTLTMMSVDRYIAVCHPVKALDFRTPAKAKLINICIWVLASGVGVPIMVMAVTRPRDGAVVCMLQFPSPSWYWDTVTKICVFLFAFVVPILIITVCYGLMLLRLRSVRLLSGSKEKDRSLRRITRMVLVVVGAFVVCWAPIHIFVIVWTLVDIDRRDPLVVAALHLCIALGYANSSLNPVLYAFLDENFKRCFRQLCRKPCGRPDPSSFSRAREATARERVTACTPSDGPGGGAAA

[32] = molecular target: H1 (Homo sapiens, UniProt P35367); test: Binding selectivity screening, H1; settings: read-out: % inhibition (10nM)
H1, sequence (P35367 whole entry): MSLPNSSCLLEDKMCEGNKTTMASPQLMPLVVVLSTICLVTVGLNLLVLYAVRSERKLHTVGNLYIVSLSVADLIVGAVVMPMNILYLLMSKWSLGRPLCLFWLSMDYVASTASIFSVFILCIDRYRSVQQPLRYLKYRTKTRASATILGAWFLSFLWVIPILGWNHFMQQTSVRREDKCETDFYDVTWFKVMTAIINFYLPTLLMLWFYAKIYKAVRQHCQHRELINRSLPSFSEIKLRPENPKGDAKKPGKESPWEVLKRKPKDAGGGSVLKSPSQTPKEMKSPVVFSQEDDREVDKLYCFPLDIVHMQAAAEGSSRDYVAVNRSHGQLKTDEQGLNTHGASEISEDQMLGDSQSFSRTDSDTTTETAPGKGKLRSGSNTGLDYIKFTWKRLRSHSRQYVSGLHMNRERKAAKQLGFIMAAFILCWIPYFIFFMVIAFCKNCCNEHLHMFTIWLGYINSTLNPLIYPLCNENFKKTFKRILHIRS

[33] = molecular target: H3 (Homo sapiens, UniProt Q9Y5N1); test: Binding selectivity screening, H3; settings: read-out: % inhibition (10nM)
[34] = molecular target: H4 (Homo sapiens, UniProt Q9H3N8); test: Binding selectivity screening, H4; settings: read-out: % inhibition (10nM)
[35] = molecular target: κ opioid receptor (Homo sapiens, UniProt P41145); test: Binding selectivity screening, κ opioid receptor; settings: read-out: % inhibition (10nM)
κ opioid receptor, sequence (P41145 whole entry): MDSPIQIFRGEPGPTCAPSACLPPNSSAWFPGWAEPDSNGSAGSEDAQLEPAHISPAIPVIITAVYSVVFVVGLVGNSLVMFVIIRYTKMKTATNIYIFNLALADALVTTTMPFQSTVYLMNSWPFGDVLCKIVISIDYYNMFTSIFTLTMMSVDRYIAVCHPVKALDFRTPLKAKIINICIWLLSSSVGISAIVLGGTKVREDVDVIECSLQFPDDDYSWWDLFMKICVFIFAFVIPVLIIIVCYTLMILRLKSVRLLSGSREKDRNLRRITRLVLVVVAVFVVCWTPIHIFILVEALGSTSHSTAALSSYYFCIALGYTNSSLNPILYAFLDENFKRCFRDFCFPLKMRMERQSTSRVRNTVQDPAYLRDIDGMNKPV

[36] = molecular target: M1 (Homo sapiens, UniProt P11229); test: biochemical; type: binding; settings: read-out: % inhibition (10nM)
[37] = molecular target: M2 (Homo sapiens, UniProt P08172); test: biochemical; type: binding; settings: read-out: % inhibition (10nM)
[38] = molecular target: M3 (Homo sapiens, UniProt P20309); test: biochemical; type: binding; settings: read-out: % inhibition (10nM)
[39] = molecular target: M4 (Homo sapiens, UniProt P08173); test: biochemical; type: binding; settings: read-out: % inhibition (10nM)
[40] = molecular target: M5 (Homo sapiens, UniProt P08912); test: biochemical; type: binding; settings: read-out: % inhibition (10nM)
[41] = molecular target: μ opioid receptor (Homo sapiens, UniProt P35372); test: Binding selectivity screening, μ opioid receptor; settings: read-out: % inhibition (10nM)
[42] = molecular target: NET (Homo sapiens, UniProt P23975); test: Binding selectivity screening, NET; settings: read-out: % inhibition (10nM)
[43] = molecular target: SERT (Homo sapiens, UniProt P31645); test: Binding selectivity screening, SERT; settings: read-out: % inhibition (10nM)

SMILES: Cl.c1ccc2oc(C3=NCCN3)cc2c1 [2-BFI, 2-(2-Benzofuranyl)-2-imidazoline hydrochloride]
- substitution for BU224 discriminative stimulus [1]: fully substituted
- substitution for phenyzoline discriminative stimulus [2]: only partially substituted
- dose that significantly suppresses food-maintained operant responding [3]: 10 mg/kg

SMILES: Cl.c1ccc2nc(C3=NCCN3)ccc2c1 [BU224, 2-(4,5-Dihydroimidazol-2-yl) quinoline hydrochloride]
- duration of discriminative stimulus effects ([1]; 5.6 mg/kg BU224 i.p.): 120 min
- effect on response rate ([1]; rat, in vivo): without significantly altering response rate
- substitution for phenyzoline discriminative stimulus [2]: completely substituted
- substitution for 2-BFI discriminative stimulus [4]: fully substituted
- dose that significantly suppresses food-maintained operant responding [3]: 17.8 mg/kg

SMILES: c1ccc(-c2ncc3cc(-n4ccnc4)ccc3n2)cc1 [CR4056, 2-phenyl-6-(1H-imidazol-1-yl) quinazoline]
- IC50 ([5]; read-out: IC50 at I2 receptor, ref Ferrari et al., 2011): 0.596 µM

SMILES: COc1cccc([C@H](O)C2CCN(CCc3ccc(F)cc3)CC2)c1OC [MDL100907, (R)-(2,3-dimethoxyphenyl)-[1-[2-(4-fluorophenyl)ethyl]-4-piperidyl] methanol]
- antagonism of the discriminative stimulus effects of BU224 [1]: failed to antagonize
- antagonism of the discriminative stimulus effects of phenyzoline [2]: failed to antagonize

SMILES: Clc1cccc2c1CN(C1=NCCN1)C2 [RS45041, 4-chloro-2-(imidazolin-2-yl) isoindoline]
- BU224-appropriate (drug-associated lever) responding, maximum ([1]; substitution test in rats discriminating 5.6 mg/kg BU224): > 80%
- phenyzoline-appropriate (drug-associated lever) responding, maximum ([2]; substitution test in rats discriminating 32 mg/kg phenyzoline): > 80%
- selectivity for I2 receptors over adrenoceptors, dopamine, 5-HT, muscarinic receptors and dihydropyridine binding sites ([5]; ref Brown et al., 1995): > 1000 fold

SMILES: NCCCCN=C(N)N [agmatine]
- substitution for BU224 discriminative stimulus [1]: partial or less substitution

SMILES: Clc1cccc(Cl)c1N=C1NCCN1 [clonidine]
- substitution for BU224 discriminative stimulus [1]: partial or less substitution
- substitution for phenyzoline discriminative stimulus [2]: partial substitution

SMILES: O=C(CCCN1CCC(O)(c2ccc(Cl)cc2)CC1)c1ccc(F)cc1 [haloperidol]
- antagonism of the discriminative stimulus effects of BU224 [1]: failed to antagonize
- antagonism of the discriminative stimulus effects of phenyzoline [2]: failed to antagonize

SMILES: COc1ccc2c3c([nH]c2c1)C(C)=NCC3 [harmaline]
- substitution for 2-BFI discriminative stimulus [4]: fully substitute

SMILES: Cc1nccc2c1[nH]c1ccccc12 [harmane]
- substitution for BU224 discriminative stimulus [1]: fully substitutes
- substitution for phenyzoline discriminative stimulus [2]: only partially substitutes
- substitution for 2-BFI discriminative stimulus [4]: fully substitute
- substitution for CR4056 discriminative stimulus [6]: does not substitute

SMILES: c1ccc2c(c1)OCC(C1=NCCN1)O2 (centres unmarked) [idazoxan]
- substitution for BU224 discriminative stimulus [1]: fully substituted
- substitution for phenyzoline discriminative stimulus [2]: fully substituted
- substitution for 2-BFI discriminative stimulus [4]: fully substitutes

SMILES: CNC1(c2ccccc2Cl)CCCCC1=O (centres unmarked) [ketamine]
- substitution for BU224 discriminative stimulus [1]: partial or less substitution

SMILES: CCC(=O)C(CC(C)N(C)C)(c1ccccc1)c1ccccc1 (centres unmarked) [methadone]
- substitution for BU224 discriminative stimulus [1]: partial or less substitution

SMILES: CN[C@@H](C)Cc1ccccc1 [methamphetamine]
- substitution for BU224 discriminative stimulus [1]: partial or less substitution
- substitution for phenyzoline discriminative stimulus [2]: partial substitution

SMILES: CN1CC[C@]23c4c5ccc(O)c4O[C@H]2[C@@H](O)C=C[C@H]3[C@H]1C5 [morphine]
- substitution for BU224 discriminative stimulus [1]: partial or less substitution
- substitution for phenyzoline discriminative stimulus [2]: partial substitution

SMILES: O=C1CC[C@@]2(O)[C@H]3Cc4ccc(O)c5c4[C@@]2(CCN3CC2CC2)[C@H]1O5 [naltrexone]
- antagonism of the discriminative stimulus effects of BU224 [1]: failed to antagonize
- antagonism of the discriminative stimulus effects of phenyzoline [2]: failed to antagonize

SMILES: c1ccc(CCC2=NCCN2)cc1 [phenyzoline, 4,5-dihidro-2-(2-phenylethyl)-1H-imidazole]
- Ki [7]: > 10 µM
- inhibition at 0.01 µM [8]: -2.6%
- inhibition at 0.01 µM [9]: 5%
- inhibition at 0.01 µM [10]: -4.2%
- inhibition at 0.01 µM [11]: 38.4%
- inhibition at 0.01 µM [12]: 14.3%
- inhibition at 0.01 µM [13]: -13.3%
- inhibition at 0.01 µM [14]: 4.6%
- inhibition at 0.01 µM [15]: 23.7%
- inhibition at 0.01 µM [16]: 17.3%
- inhibition at 0.01 µM [17]: 6.3%
- inhibition at 0.01 µM [18]: -0.6%
- Ki [19]: 0.851 µM
- inhibition at 0.01 µM [20]: 42.7%
- inhibition at 0.01 µM [21]: 29.6%
- inhibition at 0.01 µM [22]: -10.1%
- inhibition at 0.01 µM [23]: 22.9%
- inhibition at 0.01 µM [24]: -5.5%
- inhibition at 0.01 µM [25]: 0.9%
- inhibition at 0.01 µM [26]: -7.3%
- inhibition at 0.01 µM [27]: -4.1%
- inhibition at 0.01 µM [28]: 9.1%
- inhibition at 0.01 µM [29]: -11.6%
- inhibition at 0.01 µM [30]: 43.6%
- inhibition at 0.01 µM [31]: -2.7%
- inhibition at 0.01 µM [32]: -10.9%
- inhibition at 0.01 µM [33]: 10.4%
- inhibition at 0.01 µM [34]: 15.2%
- inhibition at 0.01 µM [35]: 7.1%
- inhibition at 0.01 µM [36]: -14.1%
- inhibition at 0.01 µM [37]: 11.1%
- inhibition at 0.01 µM [38]: -2%
- inhibition at 0.01 µM [39]: -0.5%
- inhibition at 0.01 µM [40]: 25.9%
- inhibition at 0.01 µM [41]: 5.4%
- inhibition at 0.01 µM [42]: 6.8%
- inhibition at 0.01 µM [43]: 21.9%
- duration of discriminative stimulus effects ([2]; 32 mg/kg phenyzoline i.p.): 90 min
- effect on response rate ([2]; rat, in vivo): without significantly altering response rate
- substitution for CR4056 discriminative stimulus [6]: fully substituted

SMILES: C(=C\c1ccccc1)/C1=NCCN1 [tracizoline, 2-styryl-4,5-dihydro-lH-imidazole]
- selectivity for I2 receptors over I1 receptors ([5]; ref Pigini et al., 1997): 10 fold
- selectivity for I2 receptors over α2 adrenoceptors ([5]; ref Pigini et al., 1997): 7431 fold
